{
  "source": "patent US20240009212A1",
  "about": "“PHOSPHAPLATIN COMPOUNDS AS THERAPEUTIC AGENTS SELECTIVELY TARGETING HIGHLY GLYCOLYTIC TUMOR CELLS AND METHODS THEREOF” (Promontory Therapeutics Inc., priority 2020, published 2024)",
  "assay_type_in_all_cases": "cell-based, mouse",
  "key": {"[1]": {"tested_on": "glycolytic cells sensitive to PT-112-induced cell death", "assay": "Apoptosis and necroptosis inhibition of PT-112-induced cell death", "conditions": "1 h pretreatment (Z-VAD-fmk 50 μM, necrostatin-1 30 μM), then 10 μM PT-112 for 48 h", "experimental": "Cells (3×10^4) were seeded in a 96-well plate and incubated with a pan-caspase-inhibitor Z-VAD-fmk (50 μM, MedChem Express, New Jersey, USA) and/or RIPK-1 inhibitor necrostatin-1 (30 μM, MedChem Express, New Jersey, USA) for 1 h. After that, cells were treated with 10 μM of PT-112 and incubated for 48 h at 37° C. Both inhibitors were refreshed in their corresponding well after 24 h. Finally, cell death was assessed using flow cytometry after incubation with annexin-V-FITC and 7-AAD for 10 minutes. […] For this purpose, a FITC-labelled anti-caspase-3 antibody that detects cleaved, active caspase-3 by flow cytometry was used. Cells (3×10^4) were treated with 10 μM of PT-112 for 24-72 h. Then, cells were incubated with anti-cleaved caspase-3 labelled with FITC dye and analyzed by flow cytometry. […] The implications of caspase-3 activation in this process were investigated by tested the ability of the general pan-caspase inhibitor Z-VAD-fmk and/or the necroptosis inhibitor necrostatin-1 to prevent cell death induced by PT-112 (FIG. 4B). Cells were pretreated for 1 h with or without pan-caspase or/and necroptosis inhibitors and then, incubated with 10 μM of PT-112 for 48 h. Flow cytometry analysis was carried-out using annexin-V-FITC and 7-AAD staining. Cells were stained simultaneously with annexin-V-FITC and 7-AAD and the percentage of the different populations analyzed by flow cytometry. […]"}, "L929dt and L929^dt cells [2]": {"tested_on": "L929dt and L929^dt cells", "assay": "Mitochondrial ROS production (MitoSOX), sensitive cells", "experimental": "Total ROS production and mitochondrial membrane potential were simultaneously measured using a FACScalibur flow cytometer. Pretreated cells with PT-112 were incubated with DiOC6 at 20 nM (Molecular Probes, Madrid) and DHE at 2 μM (Molecular Probes, Madrid) for 30 min at 37° C. For specific mitochondrial ROS production, cells were incubated with MitoSOX™ (5 μM, ThermoFisher, Rockford, USA) for 30 minutes at 37° C.\nIn order to obtain more evidence about the mechanism of action of PT-112, its effect on ROS production was analyzed. First, a time-course determination of total ROS generation by detection of 2HE oxidation was performed by flow cytometry. […] To complete this study, specific mitochondrial ROS production upon PT-112 treatment using the MitoSOX™ reagent was determined.\nHowever, this effect can be due to direct reactivity of the thiol group with Pt, inactivating the cytotoxic potential of PT-112, and not to the elimination of ROS generation. This hypothesis was confirmed by incubating PT-112 with GSH during 1 h in the absence of cells and adding this GSH-treated PT-112 to cells, showing no cytotoxicity (FIG. 6). […] Since PT-112-induced ROS generation seems to be concentrated in mitochondria, the mitochondria-specific ROS scavenger MitoTEMPO was used. Cells (3×10^4) were seeded in a 96-well plate in phenol red-free medium and were incubated with 100 μM of MitoTEMPO for 2 h. Then, 10 μM of PT-112 was added and incubated for 48 and 72 h at 37° C."}, "L929dt and L929^dt cells [3]": {"tested_on": "L929dt and L929^dt cells", "assay": "ROS scavengers on PT-112-induced cell death", "conditions": "for effect on PT-112-induced cell death: ROS scavenger plus 10 μM PT-112 (GSH 5 mM, 72 h)"}, "[4]": {"tested_on": "L929dt and L929^dt cybrid cells", "assay": "MTT relative cell growth, glycolytic cells", "conditions": "72 h, highest dose (10 μM)", "experimental": "(§1) Cell Culture and Generation of Cybrids Mouse fibroblast cell lines L929 and L929-derived (L929dt) were routinely cultured in high glucose DMEM medium with GlutaMAX (Life Technologies, Paisley, UK) supplemented with 10% of fetal calf serum (FCS), penicillin (1000 U/ml) and streptomycin (10 mg/ml) (PanBiotech, Aidenbach, Germany) at 37° C. and 5% CO2 using standard procedures. The transmitochondrial cell lines L929^dt and dt^L929 were obtained as previously described (Schmidt, W., et al. (1993) 53:799-805) and cultured with the identical medium used with the parental cells. For L929-ρ^0 cells, complete DMEM medium was also supplemented with 100 pyruvate (100 μg/ml) and uridine (50 μg/ml).\n(§2) Relative cell growth was measured using the Mossman's method. 3×10^4 cells were seeded per well in a 96-well flat-bottomed plate and incubated with increasing concentrations of PT-112 or cisplatin (2, 6, and 10 μM) for 24-72 h at 37° C. […] During the incubation time, viable cells reduce MTT solution in insoluble purple formazan crystals, solubilized afterwards with isopropanol and 0.05 M HCl mixture and the absorbance was measured in a microplate reader (Dynatec, Pina de Ebro, Spain).\n(§3) The sensitivity of L929, L929dt and cybrid cells to PT-112 was compared. […] The ability of both drugs to inhibit cell growth was assessed by the MTT reduction method. […]"}, "L929 and dt^L929 cells": {"tested_on": "L929 and dt^L929 cells", "assay": "MTT relative cell growth, OXPHOS-competent cells", "conditions": "72 h, higher doses", "experimental": "as §1, §2, §3"}, "L929-ρ^0 cells": {"tested_on": "L929-ρ^0 cells", "assay": "MTT relative cell growth, rho0 cells", "conditions": "2, 6 and 10 μM, 24-72 h", "experimental": "as §1\nRelative cell growth was measured using the Mossman's method. 3×10^4 cells were seeded per well in a 96-well flat-bottomed plate and incubated with increasing concentrations of PT-112 or cisplatin (2, 6, and 10 μM) for 24-72 h at 37° C. Then, 10 μl of a 5 mg/ml MTT dye solution was added per well and incubated for 3 hours. During the incubation time, viable cells reduce MTT solution in insoluble purple formazan crystals, solubilized afterwards with isopropanol and 0.05 M HCl mixture and the absorbance was measured in a microplate reader (Dynatec, Pina de Ebro, Spain). […]"}, "[5]": {"tested_on": "L929, L929dt and cybrids cells", "assay": "Cytotoxicity, annexin-V-FITC/7-AAD flow cytometry", "conditions": "10 μM, 24, 48 or 72 h", "experimental": "Cytotoxicity assays were carried-out as follows: 100 μl aliquots of 3×10^4 cells were seeded per well in 96-well plate and 10 μM of PT-112 or cisplatin was added and incubated for 24-72 h at 37° C. Cell death was analyzed using a FACScalibur flow cytometer (BD Biosciences) after incubation with Annexin-V-FITC and/or 7-AAD (BD Biosciences, Madrid) in annexin binding buffer (140 mM NaCl, 2.5 mM CaCl2), 10 mM HEPES/NaOH, pH 7.4) for 10 minutes.\nTo test cell death induction by PT-112 and cisplatin, the parental cells L929, L929dt and cybrids cells were incubated with 10 μM of PT-112 or cisplatin for 24, 48 or 72 h and, at the end of the incubations, simultaneously stained with annexin-V-FITC and 7-AAD and analyzed by flow cytometry. […] The results are shown as mean±SD of at least 2 independent experiments made in duplicate. […] On the contrary, in cells treated with PT-112, this population is not observed at any time point in sensitive L929dt and L929^dt cells, and a population double positive for both markers is at short times of exposure, increasing with time (FIG. 2B, bar sections colored in white). Finally, at longer times, a population positive for 7-AAD and negative for annexin-V staining appears for both cell lines, typical of necrotic cell death (FIG. 2B, sections colored in grey)."}},
  "note": "Peptide text beside a SMILES is read from it. * marks the point of attachment. Cbz = O=C(OCc1ccccc1)*; CH2F = FC*",
  "data": [
    {"compound": "CN1C(=O)C(Cc2c[nH]c3ccccc23)NC1=S", "note": "(centres unmarked) [necrostatin-1]", "values": [
      {"measurement": "prevention of cell death induced by PT-112", "setting": "[1]", "value": "did not inhibit cell death"}
    ]},
    {"compound": "antimycin A", "values": [
      {"measurement": "mitochondrial superoxide anion, MFI", "setting": "L929dt and L929^dt cells [2]; L929dt cells, MitoSOX, FIG. 7", "value": 128}
    ]},
    {"compound": "O=C(O)c1ccc(/C2=C3\\C=CC(=N3)/C(c3ccc(C(=O)O)cc3)=c3/cc/c4[n]3[Mn]([Cl])[n]3c2ccc3/C(c2ccc(C(=O)O)cc2)=C2/C=CC(=N2)\\C=4c2ccc(C(=O)O)cc2)cc1", "note": "[MnTBAP]", "values": [
      {"measurement": "effect on PT-112-induced cell death", "setting": "L929dt and L929^dt cells [3]", "value": "neither of them were able to prevent"}
    ]},
    {"compound": "CC1(C)CCCC(C)(C)N1[O]", "note": "[TEMPO]", "values": [
      {"measurement": "effect on PT-112-induced cell death", "setting": "L929dt and L929^dt cells [3]", "value": "neither of them were able to prevent"}
    ]},
    {"compound": "N[C@@H](CCC(=O)N[C@@H](CS)C(=O)NCC(=O)O)C(=O)O", "note": "[glutathione]", "values": [
      {"measurement": "effect on PT-112-induced cell death", "setting": "L929dt and L929^dt cells [3]", "value": "completely abolished"}
    ]},
    {"compound": "N.N.[Cl][Pt][Cl]", "note": "[cisplatin]", "values": [
      {"measurement": "growth inhibition", "setting": "[4]", "value": 95, "unit": "%"},
      {"measurement": "growth inhibition", "setting": "L929 and dt^L929 cells", "value": 70, "unit": "%"},
      {"measurement": "cell growth", "setting": "L929-ρ^0 cells", "value": "inhibited the growth"},
      {"measurement": "cell death induction", "setting": "[5]", "value": "induces cell death in all cell lines"}
    ]},
    {"compound": "Cc1c(C)c2c(c(C)c1O)CC[C@@](C)(CCC[C@H](C)CCC[C@H](C)CCCC(C)C)O2", "note": "[α-tocopherol]", "values": [
      {"measurement": "effect on PT-112-induced cell death", "setting": "L929dt and L929^dt cells [3]", "value": "neither of them were able to prevent"}
    ]},
    {"compound": "CC1(C)CC(NC(=O)C[P+](c2ccccc2)(c2ccccc2)c2ccccc2)CC(C)(C)N1[O]", "note": "[MitoTEMPO]", "values": [
      {"measurement": "inhibition of mitochondrial superoxide generation induced by PT-112", "setting": "L929dt and L929^dt cells [2]; 100 μM MitoTEMPO 2 h, then 10 μM PT-112, L929dt cells", "value": "only partially"},
      {"measurement": "inhibition of mitochondrial superoxide generation induced by antimycin A", "setting": "L929dt and L929^dt cells [2]; 100 μM MitoTEMPO, L929dt cells", "value": "almost completely abolish"},
      {"measurement": "protection from PT-112-induced L929dt cell death", "setting": "L929dt and L929^dt cells [3]; 100 μM MitoTEMPO, 10 μM PT-112, statistically significant after 72 h", "value": "partial protection"}
    ]},
    {"compound": "COC(=O)C[C@H](NC(=O)[C@H](C)NC(=O)[C@@H](NC(=O)OCc1ccccc1)C(C)C)C(=O)CF", "note": "[Z-VAD-fmk] (Cbz-Val-Ala-Asp(OMe)-CH2F)", "values": [
      {"measurement": "prevention of cell death induced by PT-112", "setting": "[1]", "value": "did not inhibit cell death"}
    ]}
  ]
}
